From patent publication US6416780B1 (Galen (Chemicals) Limited, priority 1997, dated 2002)
Read-outs that look alike come from different tables or passages of the source.

Assays:
[1] = Example 2 rings; 1.0% BKC versus 0.9% saline
[2] = for sink conditions in 0.9% saline: rings of Examples 1 and 2, 250 ml, 37° C.; for In vitro release into 0.9% saline (as total testosterone): core loading 10% w/w testosterone
Protocol: The rings were tested in vitro at a constant temperature of 37° C. for their release characteristics in a sufficient volume (250 ml) of each of the following media: 0.9% (w/v) saline and 1.0% (w/v) aqueous benzalkonium chloride (BKC).
Thus, each ring was suspended by a thread in an individual enclosed flask containing the dissolution medium, maintained at a constant temperature of 37° C. The contents of the flask were gently agitated in order to prevent the occurrence of a hydrostatic layer on the surface of the ring. After 24 hours (±30 minutes), the ring was removed and suspended in a flask of fresh dissolution medium of identical volume.

[3] = In vitro release from Example 5 testosterone-17-propionate ring into 0.9% saline over 26 days; assay type: physicochemical; details: for In Vitro Release of Testosterone-17-propionate, Release Rate: Example 5 ring core length 90 mm
[4] = In vitro release from Example 3 rings into 0.9% saline over 30 days; assay type: physicochemical; details: 30 day monitoring period
[5] = human female, cited from earlier work
[6] = In vitro release from Example 6 pessary bullets into 0.9% saline; details: following an initial burst phase

## CC(=O)O[C@H]1CC[C@H]2[C@@H]3CCC4=CC(=O)CC[C@]4(C)[C@H]3CC[C@]12C [testosterone-17-acetate]
[1]
  in vitro release rates into BKC compared with saline: considerably higher than those into saline
[2]
  sink conditions in 0.9% saline: ‘non-sink conditions’ exist in saline

## CCC(=O)O[C@H]1CC[C@H]2[C@@H]3CCC4=CC(=O)CC[C@]4(C)[C@H]3CC[C@]12C [testosterone-17-propionate]
[3]; 0.9% saline, day 2
  In Vitro Release of Testosterone-17-propionate, Release Rate: 171 µg/day
[3]; 0.9% saline, day 3
  In Vitro Release of Testosterone-17-propionate, Release Rate: 328 µg/day
[3]; 0.9% saline, day 4
  In Vitro Release of Testosterone-17-propionate, Release Rate: 337 µg/day
[3]; 0.9% saline, day 5
  In Vitro Release of Testosterone-17-propionate, Release Rate: 465 µg/day
[3]; 0.9% saline, day 7
  In Vitro Release of Testosterone-17-propionate, Release Rate: 457 µg/day
[3]; 0.9% saline, day 13
  In Vitro Release of Testosterone-17-propionate, Release Rate: 527 µg/day
[3]; 0.9% saline, day 14
  In Vitro Release of Testosterone-17-propionate, Release Rate: 587 µg/day
[3]; 0.9% saline, day 19
  In Vitro Release of Testosterone-17-propionate, Release Rate: 585 µg/day
[3]; 0.9% saline, day 20
  In Vitro Release of Testosterone-17-propionate, Release Rate: 663 µg/day
[3]; 0.9% saline, day 26
  In Vitro Release of Testosterone-17-propionate, Release Rate: 637 µg/day
[3]; Example 5 ring, freshly made, 0.9% saline
  lag phase of in vitro release: 13 days
[3]; Example 5 ring, 0.9% saline, 13 day monitoring after the lag phase
  in vitro release pattern: substantially zero order pattern
[3]; intravaginal rings, high dose applications
  amounts released compared with testosterone: amounts released are greater

## C[C@]12CC[C@H]3[C@@H](CCC4=CC(=O)CC[C@@]43C)[C@@H]1CC[C@@H]2O [testosterone]
[4]
  in vitro release pattern: substantially zero order pattern
[5]; matrix (non-rate controlled) transdermal system, per day
  testosterone delivered per day: about 1000 μg
[5]; matrix transdermal system delivering about 1000 μg per day
  mean circulating plasma testosterone levels: 4 to 6 nM
[6]
  in vitro release pattern: substantially zero order release
[2]; ring core length 30 mm, day 2
  In vitro release into 0.9% saline (as total testosterone): 270 µg/day
[2]; ring core length 30 mm, day 3
  In vitro release into 0.9% saline (as total testosterone): 232 µg/day
[2]; ring core length 30 mm, day 5
  In vitro release into 0.9% saline (as total testosterone): 237 µg/day
[2]; ring core length 30 mm, day 8
  In vitro release into 0.9% saline (as total testosterone): 228 µg/day
[2]; ring core length 30 mm, day 9
  In vitro release into 0.9% saline (as total testosterone): 229 µg/day
[2]; ring core length 30 mm, day 10
  In vitro release into 0.9% saline (as total testosterone): 226 µg/day
[2]; ring core length 30 mm, day 13
  In vitro release into 0.9% saline (as total testosterone): 238 µg/day
[2]; ring core length 30 mm, day 15
  In vitro release into 0.9% saline (as total testosterone): 227 µg/day
[2]; ring core length 30 mm, day 16
  In vitro release into 0.9% saline (as total testosterone): 216 µg/day
[2]; ring core length 30 mm, day 17
  In vitro release into 0.9% saline (as total testosterone): 224 µg/day
[2]; ring core length 60 mm, day 2
  In vitro release into 0.9% saline (as total testosterone): 471 µg/day
[2]; ring core length 60 mm, day 3
  In vitro release into 0.9% saline (as total testosterone): 401 µg/day
[2]; ring core length 60 mm, day 5
  In vitro release into 0.9% saline (as total testosterone): 419 µg/day
[2]; ring core length 60 mm, day 8
  In vitro release into 0.9% saline (as total testosterone): 400 µg/day
[2]; ring core length 60 mm, day 9
  In vitro release into 0.9% saline (as total testosterone): 407 µg/day
[2]; ring core length 60 mm, day 10
  In vitro release into 0.9% saline (as total testosterone): 406 µg/day
[2]; ring core length 60 mm, day 13
  In vitro release into 0.9% saline (as total testosterone): 430 µg/day
[2]; ring core length 60 mm, day 15
  In vitro release into 0.9% saline (as total testosterone): 408 µg/day
[2]; ring core length 60 mm, day 16
  In vitro release into 0.9% saline (as total testosterone): 392 µg/day
[2]; ring core length 60 mm, day 17
  In vitro release into 0.9% saline (as total testosterone): 388 µg/day
[2]; ring core length 90 mm, day 2
  In vitro release into 0.9% saline (as total testosterone): 696 µg/day
[2]; ring core length 90 mm, day 3
  In vitro release into 0.9% saline (as total testosterone): 572 µg/day
[2]; ring core length 90 mm, day 5
  In vitro release into 0.9% saline (as total testosterone): 588 µg/day
[2]; ring core length 90 mm, day 8
  In vitro release into 0.9% saline (as total testosterone): 592 µg/day
[2]; ring core length 90 mm, day 10
  In vitro release into 0.9% saline (as total testosterone): 581 µg/day
[2]; ring core length 90 mm, day 13
  In vitro release into 0.9% saline (as total testosterone): 623 µg/day
[2]; ring core length 90 mm, day 15
  In vitro release into 0.9% saline (as total testosterone): 595 µg/day
[2]; ring core length 90 mm, day 16
  In vitro release into 0.9% saline (as total testosterone): 584 µg/day
[2]; ring core length 90 mm, day 17
  In vitro release into 0.9% saline (as total testosterone): 612 µg/day
[2]
  sink conditions in 0.9% saline: ‘Sink conditions’ were evident
